In patent US10538555B2, “Macrocyclic inhibitors of the PD-1/PD-L1 and CD80(B7-1)/PD-L1 protein/protein interactions” (BRISTOL-MYERS SQUIBB COMPANY, priority 2014, dated 2020):
Where a SMILES comes first, the peptide text is derived from it. Bridges are numbered along the chain shown (N, C = ends). [ ]: non-standard residue; d: D form. Trp(1-CH2COOH) = N[C@@H](Cc1cn(CC(=O)O)c2ccccc12)C(=O)O; Trp(1-Me) = Cn1cc(C[C@H](N)C(=O)O)c2ccccc21; Bta = N[C@@H](Cc1csc2ccccc12)C(=O)O; Lys(Me2) = CN(C)CCCC[C@H](N)C(=O)O; Hyp = O=C(O)[C@@H]1C[C@@H](O)CN1; NMeNle = CCCC[C@H](NC)C(=O)O; NMeS = CN[C@@H](CO)C(=O)O; Pip = O=C(O)[C@@H]1CCCCN1; NMeA = CN[C@@H](C)C(=O)O; Dab = NCC[C@H](N)C(=O)O; Dap = NC[C@H](N)C(=O)O

Biological target: T1, Human PD-L1/PD-1 (Homo sapiens, UniProt Q9NZQ7)
T1 construct: TVMV protease cleavage site (C); made in house; host or cells: HEK293T cells
T1 sequence (Q9NZQ7 with tags, fused parts or gaps): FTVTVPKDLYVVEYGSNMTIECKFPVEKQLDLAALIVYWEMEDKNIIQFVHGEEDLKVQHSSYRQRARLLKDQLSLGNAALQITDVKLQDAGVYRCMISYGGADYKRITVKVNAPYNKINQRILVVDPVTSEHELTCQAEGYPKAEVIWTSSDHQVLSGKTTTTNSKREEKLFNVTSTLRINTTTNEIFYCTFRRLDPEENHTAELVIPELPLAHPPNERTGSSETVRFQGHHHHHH
Test: HTRF Human PD-L1/PD-1 binding assay (PD-1-Ig/PD-L1-His)
Conditions: PD-L1-His 10 nM, PD-1-Ig 20 nM; class symbol; read-out: HTRF Human PD-L1/PD-1 Binding Assay IC50 Range
Procedure, shortened: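 HTRF competition using HEK293T-expressed human PD-1(25-167)-Ig at 20 nM and PD-L1(18-239)-His at 10 nM, compound incubated first with PD-L1 for 15 min, then with PD-1 for 15 min. Signal read as 665/620 nm ratio 30 min after adding Eu anti-Ig and APC anti-His antibodies.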

With CCCC[C@H]1C(=O)N(C)[C@@H](CCCC)C(=O)N[C@@H](CC(=O)O)C(=O)N[C@H](C(=O)NCC(N)=O)CSCC(=O)N[C@@H](Cc2ccc(O)cc2)C(=O)N2CCCC[C@H]2C(=O)N[C@@H](CC(=O)O)C(=O)N2CCC[C@H]2C(=O)N[C@@H](Cc2cnc[nH]2)C(=O)N[C@@H](CCCCN)C(=O)N2C[C@H](O)C[C@H]2C(=O)N[C@@H](Cc2c[nH]c3ccccc23)C(=O)N[C@@H](CCCCN)C(=O)N[C@@H](Cc2cn(CC(=O)O)c3ccccc23)C(=O)N1C [Example 1302] ({CH2CO}-Y[Pip]DPHK[Hyp]WK[Trp(1-CH2COOH)][NMeNle][NMeNle]DCG-NH2; thioether N-14) the IC50 was 1 to 9.9 nM.
Molecule CCCC[C@H]1C(=O)N(C)[C@@H](CCCC)C(=O)N[C@@H](CCC(=O)O)C(=O)N[C@H](C(=O)NCC(N)=O)CSCC(=O)N[C@@H](Cc2ccc(O)cc2)C(=O)N2CCCC[C@H]2C(=O)N[C@@H](CC(N)=O)C(=O)N2CCC[C@H]2C(=O)N[C@@H](Cc2cnc[nH]2)C(=O)N[C@@H](CCCCN)C(=O)N2C[C@H](O)C[C@H]2C(=O)N[C@@H](Cc2c[nH]c3ccccc23)C(=O)N[C@@H](CCCCN)C(=O)N[C@@H](Cc2cn(CC(=O)O)c3ccccc23)C(=O)N1C [Example 1303] ({CH2CO}-Y[Pip]NPHK[Hyp]WK[Trp(1-CH2COOH)][NMeNle][NMeNle]ECG-NH2; thioether N-14) has an IC50 of 10 to 99.9 nM.
CCCC[C@H]1C(=O)N(C)[C@@H](CCCC)C(=O)N[C@@H](CC(C)C)C(=O)N[C@H](C(=O)NCC(N)=O)CSCC(=O)N[C@@H](Cc2ccc(O)cc2)C(=O)N2CCCC[C@H]2C(=O)N[C@@H](CC(N)=O)C(=O)N2CCC[C@H]2C(=O)N[C@@H](CO)C(=O)N[C@@H](CCC(N)=O)C(=O)N2C[C@H](O)C[C@H]2C(=O)N[C@@H](Cc2c[nH]c3ccccc23)C(=O)N[C@@H](CO)C(=O)N[C@@H](Cc2cn(CC(=O)O)c3ccccc23)C(=O)N1C [Example 1304] ({CH2CO}-Y[Pip]NPSQ[Hyp]WS[Trp(1-CH2COOH)][NMeNle][NMeNle]LCG-NH2; thioether N-14) was tested, and the IC50 was 10 to 99.9 nM.
Work on CCCC[C@H]1C(=O)N(C)[C@@H](CCCC)C(=O)N[C@@H](CCC(=O)O)C(=O)N[C@H](C(=O)NCC(N)=O)CSCC(=O)N[C@@H](Cc2ccc(O)cc2)C(=O)N2CCCC[C@H]2C(=O)N[C@@H](CC(N)=O)C(=O)N2CCC[C@H]2C(=O)N[C@@H](CO)C(=O)N[C@@H](CC(C)C)C(=O)N2C[C@H](O)C[C@H]2C(=O)N[C@@H](Cc2c[nH]c3ccccc23)C(=O)N[C@@H](CCN)C(=O)N[C@@H](Cc2cn(CC(=O)O)c3ccccc23)C(=O)N1C [Example 1305] ({CH2CO}-Y[Pip]NPSL[Hyp]W[Dab][Trp(1-CH2COOH)][NMeNle][NMeNle]ECG-NH2; thioether N-14) yielded an IC50 of 1 to 9.9 nM.
Molecule CCCC[C@H]1C(=O)N(C)[C@@H](CCCC)C(=O)N[C@@H](CCCCN(C)C)C(=O)N[C@H](C(=O)NCC(N)=O)CSCC(=O)N[C@@H](Cc2ccc(O)cc2)C(=O)N2CCCC[C@H]2C(=O)N[C@@H](CC(=O)O)C(=O)N2CCC[C@H]2C(=O)N[C@@H](CN)C(=O)N[C@@H](CCC(=O)O)C(=O)N2C[C@H](O)C[C@H]2C(=O)N[C@@H](Cc2c[nH]c3ccccc23)C(=O)N[C@@H](CO)C(=O)N[C@@H](Cc2c[nH]c3ccccc23)C(=O)N1C [Example 1306] ({CH2CO}-Y[Pip]DP[Dap]E[Hyp]WSW[NMeNle][NMeNle][Lys(Me2)]CG-NH2; thioether N-14) has an IC50 of 10 to 99.9 nM.
In the case of CCCC[C@H]1C(=O)N(C)[C@@H](CO)C(=O)N[C@@H](CCC(=O)O)C(=O)N[C@H](C(=O)NCC(N)=O)CSCC(=O)N[C@@H](Cc2ccc(O)cc2)C(=O)N2CCCC[C@H]2C(=O)N[C@@H](CC(=O)O)C(=O)N2CCC[C@H]2C(=O)N[C@@H](CN)C(=O)N[C@@H](CCC(=O)O)C(=O)N2C[C@H](O)C[C@H]2C(=O)N[C@@H](Cc2c[nH]c3ccccc23)C(=O)N[C@@H](CO)C(=O)N[C@@H](Cc2c[nH]c3ccccc23)C(=O)N1C [Example 1309] ({CH2CO}-Y[Pip]DP[Dap]E[Hyp]WSW[NMeNle][NMeS]ECG-NH2; thioether N-14), the IC50 is reported as 10 to 99.9 nM.
Work on CCCC[C@H]1C(=O)N(C)[C@@H](CCCC)C(=O)N[C@@H](CCC(=O)O)C(=O)N[C@H](C(=O)NCC(N)=O)CSCC(=O)N[C@@H](Cc2ccc(O)cc2)C(=O)N(C)[C@@H](C)C(=O)N[C@@H](CC(=O)O)C(=O)N2CCC[C@H]2C(=O)N[C@@H](Cc2cnc[nH]2)C(=O)N[C@@H](CCC(N)=O)C(=O)N2C[C@H](O)C[C@H]2C(=O)N[C@@H](Cc2c[nH]c3ccccc23)C(=O)N[C@@H](CO)C(=O)N[C@@H](Cc2cn(C)c3ccccc23)C(=O)N1C [Example 1500] ({CH2CO}-Y[NMeA]DPHQ[Hyp]WS[Trp(1-Me)][NMeNle][NMeNle]ECG-NH2; thioether N-14) yielded an IC50 of 1 to 9.9 nM.
Work on CCCC[C@H]1C(=O)N(C)[C@@H](CCCC)C(=O)N[C@@H](C)C(=O)N[C@H](C(=O)NCC(N)=O)CSCC(=O)N[C@@H](Cc2ccc(O)cc2)C(=O)N(C)[C@@H](C)C(=O)N[C@@H](CC(=O)O)C(=O)N2CCC[C@H]2C(=O)N[C@@H](Cc2c[nH]cn2)C(=O)N[C@@H](CCC(N)=O)C(=O)N2C[C@H](O)C[C@H]2C(=O)N[C@@H](Cc2c[nH]c3ccccc23)C(=O)N[C@@H](CO)C(=O)N[C@@H](Cc2cn(C)c3ccccc23)C(=O)N1C [Example 1501] ({CH2CO}-Y[NMeA]DPHQ[Hyp]WS[Trp(1-Me)][NMeNle][NMeNle]ACG-NH2; thioether N-14) yielded an IC50 of 10 to 99.9 nM.
Work on CCCC[C@H]1C(=O)N(C)[C@@H](CCCC)C(=O)N[C@@H](C)C(=O)N[C@H](C(=O)NCC(N)=O)CSCC(=O)N[C@@H](Cc2ccc(O)cc2)C(=O)N2CCCC[C@H]2C(=O)N[C@@H](CC(=O)O)C(=O)N2CCC[C@H]2C(=O)N[C@@H](Cc2cnc[nH]2)C(=O)N[C@@H](CCC(N)=O)C(=O)N2C[C@H](O)C[C@H]2C(=O)N[C@@H](Cc2c[nH]c3ccccc23)C(=O)N[C@@H](CO)C(=O)N[C@@H](Cc2cn(C)c3ccccc23)C(=O)N1C [Example 1502] ({CH2CO}-Y[Pip]DPHQ[Hyp]WS[Trp(1-Me)][NMeNle][NMeNle]ACG-NH2; thioether N-14) yielded an IC50 of 10 to 99.9 nM.
Work on CCCC[C@H]1C(=O)N(C)[C@@H](CCCC)C(=O)N[C@@H](CC(C)C)C(=O)N[C@H](C(=O)NCC(N)=O)CSCC(=O)N[C@@H](Cc2ccc(O)cc2)C(=O)N(C)[C@@H](C)C(=O)N[C@@H](CC(=O)O)C(=O)N2CCC[C@H]2C(=O)N[C@@H](Cc2cnc[nH]2)C(=O)N[C@@H](CCC(N)=O)C(=O)N2C[C@H](O)C[C@H]2C(=O)N[C@@H](Cc2c[nH]c3ccccc23)C(=O)N[C@@H](CO)C(=O)N[C@@H](Cc2cn(C)c3ccccc23)C(=O)N1C [Example 1503] ({CH2CO}-Y[NMeA]DPHQ[Hyp]WS[Trp(1-Me)][NMeNle][NMeNle]LCG-NH2; thioether N-14) yielded an IC50 of 1 to 9.9 nM.
Molecule CCCC[C@H]1C(=O)N(C)[C@@H](CCCC)C(=O)N[C@@H](CCC(=O)O)C(=O)N[C@H](C(=O)NCC(N)=O)CSCC(=O)N[C@@H](Cc2ccc(O)cc2)C(=O)N2CCCC[C@H]2C(=O)N[C@@H](CC(N)=O)C(=O)N2CCC[C@H]2C(=O)N[C@@H](Cc2cnc[nH]2)C(=O)N[C@@H](CCC(=O)O)C(=O)N2C[C@H](O)C[C@H]2C(=O)N[C@@H](Cc2c[nH]c3ccccc23)C(=O)N[C@@H](CO)C(=O)N[C@@H](Cc2cn(C)c3ccccc23)C(=O)N1C [Example 1504] ({CH2CO}-Y[Pip]NPHE[Hyp]WS[Trp(1-Me)][NMeNle][NMeNle]ECG-NH2; thioether N-14) has an IC50 of 10 to 99.9 nM.
CCCC[C@H]1C(=O)N(C)[C@@H](CCCC)C(=O)N[C@@H](CCC(=O)O)C(=O)N[C@H](C(=O)NCC(N)=O)CSCC(=O)N[C@@H](Cc2ccc(O)cc2)C(=O)N2CCCC[C@H]2C(=O)N[C@@H](CC(=O)O)C(=O)N2CCC[C@H]2C(=O)N[C@@H](Cc2cnc[nH]2)C(=O)N[C@@H](CCC(=O)O)C(=O)N2C[C@H](O)C[C@H]2C(=O)N[C@@H](Cc2c[nH]c3ccccc23)C(=O)N[C@@H](CO)C(=O)N[C@@H](Cc2cn(C)c3ccccc23)C(=O)N1C [Example 1505] ({CH2CO}-Y[Pip]DPHE[Hyp]WS[Trp(1-Me)][NMeNle][NMeNle]ECG-NH2; thioether N-14) gave an IC50 of 1 to 9.9 nM.
Work on CCCC[C@H]1C(=O)N(C)[C@@H](CCCC)C(=O)N[C@@H](CCC(=O)O)C(=O)N[C@H](C(=O)NCC(N)=O)CSCC(=O)N[C@@H](Cc2ccc(O)cc2)C(=O)N2CCCC[C@H]2C(=O)N[C@@H](CC(=O)O)C(=O)N2CCC[C@H]2C(=O)N[C@@H](CO)C(=O)N[C@@H](CCC(N)=O)C(=O)N2C[C@H](O)C[C@H]2C(=O)N[C@@H](Cc2c[nH]c3ccccc23)C(=O)N[C@@H](CO)C(=O)N[C@@H](Cc2csc3ccccc23)C(=O)N1C [Example 1506] ({CH2CO}-Y[Pip]DPSQ[Hyp]WS[Bta][NMeNle][NMeNle]ECG-NH2; thioether N-14) yielded an IC50 of 1 to 9.9 nM.
CCCC[C@H]1C(=O)N(C)[C@@H](CCCC)C(=O)N[C@@H](C)C(=O)N[C@H](C(=O)NCC(N)=O)CSCC(=O)N[C@@H](Cc2ccc(O)cc2)C(=O)N2CCCC[C@H]2C(=O)N[C@@H](CC(=O)O)C(=O)N2CCC[C@H]2C(=O)N[C@@H](CN)C(=O)N[C@@H](CCC(N)=O)C(=O)N2C[C@H](O)C[C@H]2C(=O)N[C@@H](Cc2c[nH]c3ccccc23)C(=O)N[C@@H](CO)C(=O)N[C@@H](Cc2csc3ccccc23)C(=O)N1C [Example 1507] ({CH2CO}-Y[Pip]DP[Dap]Q[Hyp]WS[Bta][NMeNle][NMeNle]ACG-NH2; thioether N-14) was tested, and the IC50 was 1 to 9.9 nM.
CCCC[C@H]1C(=O)N(C)[C@@H](CCCC)C(=O)N[C@@H](C)C(=O)N[C@H](C(=O)NCC(N)=O)CSCC(=O)N[C@@H](Cc2ccc(O)cc2)C(=O)N2CCCC[C@H]2C(=O)N[C@@H](CC(=O)O)C(=O)N2CCC[C@H]2C(=O)N[C@@H](Cc2cnc[nH]2)C(=O)N[C@@H](CCC(N)=O)C(=O)N2C[C@H](O)C[C@H]2C(=O)N[C@@H](Cc2c[nH]c3ccccc23)C(=O)N[C@@H](CO)C(=O)N[C@@H](Cc2csc3ccccc23)C(=O)N1C [Example 1508] ({CH2CO}-Y[Pip]DPHQ[Hyp]WS[Bta][NMeNle][NMeNle]ACG-NH2; thioether N-14) was tested, and the IC50 was 1 to 9.9 nM.
